# In the supplement of paper PMC10307832:
# Columns and labels:
# Test in all cases: relative viability (nuclei count vs DMSO), 5 days (fraction); higher = more cells survive
# CAL-12T = test system: CAL-12T
# How it was run: (§1)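 Each reported value is a median over duplicate plates. It expresses relative viability: treated-well nuclei count divided by vehicle-well nuclei count. Lung cancer cell lines in 1536-well plates were dosed by pin tool a day after seeding, alone with one drug or with a fixed anchor-drug dose plus five library-drug doses (not always all listed) in √10 steps, and nuclei were counted after 5 days.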
# ChaGo-K-1 = test system: ChaGo-K-1
# How it was run: as §1
# HCC-366 = test system: HCC-366
# How it was run: as §1
# HCC-78 = test system: HCC-78
# How it was run: as §1
# LC-2-ad = test system: LC-2-ad
# How it was run: as §1
# LOU-NH91 = test system: LOU-NH91
# How it was run: as §1
# LU99A = test system: LU99A
# How it was run: as §1
# NCI-H1395 = test system: NCI-H1395
# How it was run: as §1
# NCI-H1651 = test system: NCI-H1651
# How it was run: as §1
# NCI-H1755 = test system: NCI-H1755
# How it was run: as §1
# NCI-H1793 = test system: NCI-H1793
# How it was run: as §1
# NCI-H1944 = test system: NCI-H1944
# How it was run: as §1
# NCI-H2087 = test system: NCI-H2087
# How it was run: as §1
# NCI-H2170 = test system: NCI-H2170
# How it was run: as §1
# NCI-H2228 = test system: NCI-H2228
# How it was run: as §1
# NCI-H2405 = test system: NCI-H2405
# How it was run: as §1
# NCI-H3122 = test system: NCI-H3122
# How it was run: as §1
# NCI-H460 = test system: NCI-H460
# How it was run: as §1
# PC-3 [JPC-3] = test system: PC-3 [JPC-3]
# How it was run: as §1
# RERF-LC-KJ = test system: RERF-LC-KJ
# How it was run: as §1
# UMC-11 = test system: UMC-11
# How it was run: as §1
smiles,measurement,setting,value
COc1cc2nccc(Oc3ccc(NC(=O)Nc4cc(C)on4)c(Cl)c3)c2cc1OC [Tivozanib] + CC1(C)CCC(c2ccc(Cl)cc2)=C(CN2CCN(c3ccc(C(=O)NS(=O)(=O)c4ccc(N[C@H](CCN5CCOCC5)CSc5ccccc5)c(S(=O)(=O)C(F)(F)F)c4)cc3)CC2)C1 [Navitoclax] (partner 0.5 µM),relative viability,CAL-12T; first compound 0.005 µM,1.11
same,relative viability,CAL-12T; first compound 0.01581 µM,1.19
same,relative viability,CAL-12T; first compound 0.05 µM,1.18
same,relative viability,CAL-12T; first compound 0.5 µM,0.94
same,relative viability,ChaGo-K-1; first compound 0.005 µM,0.846
same,relative viability,ChaGo-K-1; first compound 0.01581 µM,1.03
same,relative viability,ChaGo-K-1; first compound 0.05 µM,0.802
same,relative viability,ChaGo-K-1; first compound 0.1581 µM,0.645
same,relative viability,ChaGo-K-1; first compound 0.5 µM,0.799
same,relative viability,HCC-366; first compound 0.005 µM,1.05
same,relative viability,HCC-366; first compound 0.01581 µM,1.05
same,relative viability,HCC-366; first compound 0.05 µM,0.947
same,relative viability,HCC-366; first compound 0.1581 µM,1.01
same,relative viability,HCC-366; first compound 0.5 µM,1.08
same,relative viability,HCC-78; first compound 0.005 µM,0.656
same,relative viability,HCC-78; first compound 0.01581 µM,0.808
same,relative viability,HCC-78; first compound 0.05 µM,0.765
same,relative viability,HCC-78; first compound 0.1581 µM,0.756
same,relative viability,HCC-78; first compound 0.5 µM,0.677
same,relative viability,LC-2-ad; first compound 0.005 µM,0.35
same,relative viability,LC-2-ad; first compound 0.01581 µM,0.48
same,relative viability,LC-2-ad; first compound 0.05 µM,0.535
same,relative viability,LC-2-ad; first compound 0.1581 µM,0.448
same,relative viability,LC-2-ad; first compound 0.5 µM,0.427
same,relative viability,LOU-NH91; first compound 0.005 µM,0.641
same,relative viability,LOU-NH91; first compound 0.01581 µM,0.715
same,relative viability,LOU-NH91; first compound 0.05 µM,0.706
same,relative viability,LOU-NH91; first compound 0.1581 µM,0.675
same,relative viability,LOU-NH91; first compound 0.5 µM,0.705
same,relative viability,LU99A; first compound 0.005 µM,0.795
same,relative viability,LU99A; first compound 0.01581 µM,0.749
same,relative viability,LU99A; first compound 0.05 µM,0.849
same,relative viability,LU99A; first compound 0.5 µM,0.794
same,relative viability,NCI-H1395; first compound 0.005 µM,1.14
same,relative viability,NCI-H1395; first compound 0.01581 µM,1.08
same,relative viability,NCI-H1395; first compound 0.05 µM,1.08
same,relative viability,NCI-H1395; first compound 0.1581 µM,1.24
same,relative viability,NCI-H1395; first compound 0.5 µM,0.945
same,relative viability,NCI-H1651; first compound 0.005 µM,0.979
same,relative viability,NCI-H1651; first compound 0.01581 µM,0.934
same,relative viability,NCI-H1651; first compound 0.05 µM,1.09
same,relative viability,NCI-H1651; first compound 0.1581 µM,0.983
same,relative viability,NCI-H1651; first compound 0.5 µM,1.15
same,relative viability,NCI-H1755; first compound 0.005 µM,0.953
same,relative viability,NCI-H1755; first compound 0.01581 µM,0.949
same,relative viability,NCI-H1755; first compound 0.05 µM,1.01
same,relative viability,NCI-H1755; first compound 0.1581 µM,0.932
same,relative viability,NCI-H1755; first compound 0.5 µM,0.916
same,relative viability,NCI-H1793; first compound 0.005 µM,0.351
same,relative viability,NCI-H1793; first compound 0.01581 µM,0.466
same,relative viability,NCI-H1793; first compound 0.05 µM,0.413
same,relative viability,NCI-H1793; first compound 0.5 µM,0.438
same,relative viability,NCI-H1944; first compound 0.005 µM,1.08
same,relative viability,NCI-H1944; first compound 0.01581 µM,1.02
same,relative viability,NCI-H1944; first compound 0.05 µM,1.05
same,relative viability,NCI-H1944; first compound 0.1581 µM,0.891
same,relative viability,NCI-H1944; first compound 0.5 µM,1.1
same,relative viability,NCI-H2087; first compound 0.005 µM,0.906
same,relative viability,NCI-H2087; first compound 0.01581 µM,1.07
same,relative viability,NCI-H2087; first compound 0.05 µM,1.06
same,relative viability,NCI-H2087; first compound 0.1581 µM,0.917
same,relative viability,NCI-H2087; first compound 0.5 µM,0.906
same,relative viability,NCI-H2170; first compound 0.005 µM,0.537
same,relative viability,NCI-H2170; first compound 0.01581 µM,0.568
same,relative viability,NCI-H2170; first compound 0.05 µM,0.677
same,relative viability,NCI-H2170; first compound 0.5 µM,0.584
same,relative viability,NCI-H2228; first compound 0.005 µM,1.03
same,relative viability,NCI-H2228; first compound 0.01581 µM,0.891
same,relative viability,NCI-H2228; first compound 0.05 µM,0.754
same,relative viability,NCI-H2228; first compound 0.1581 µM,0.9
same,relative viability,NCI-H2228; first compound 0.5 µM,1.24
same,relative viability,NCI-H2405; first compound 0.005 µM,0.861
same,relative viability,NCI-H2405; first compound 0.01581 µM,1.09
same,relative viability,NCI-H2405; first compound 0.05 µM,0.74
same,relative viability,NCI-H2405; first compound 0.1581 µM,1.02
same,relative viability,NCI-H2405; first compound 0.5 µM,0.498
same,relative viability,NCI-H3122; first compound 0.005 µM,1.03
same,relative viability,NCI-H3122; first compound 0.01581 µM,1
same,relative viability,NCI-H3122; first compound 0.05 µM,1.07
same,relative viability,NCI-H3122; first compound 0.1581 µM,1.03
same,relative viability,NCI-H3122; first compound 0.5 µM,1.03
same,relative viability,NCI-H460; first compound 0.005 µM,1.09
same,relative viability,NCI-H460; first compound 0.01581 µM,1.24
same,relative viability,NCI-H460; first compound 0.05 µM,1.13
same,relative viability,NCI-H460; first compound 0.1581 µM,1.17
same,relative viability,NCI-H460; first compound 0.5 µM,1.1
same,relative viability,PC-3 [JPC-3]; first compound 0.005 µM,0.735
same,relative viability,PC-3 [JPC-3]; first compound 0.01581 µM,0.87
same,relative viability,PC-3 [JPC-3]; first compound 0.05 µM,0.772
same,relative viability,PC-3 [JPC-3]; first compound 0.1581 µM,0.788
same,relative viability,PC-3 [JPC-3]; first compound 0.5 µM,0.809
same,relative viability,RERF-LC-KJ; first compound 0.005 µM,0.872
same,relative viability,RERF-LC-KJ; first compound 0.01581 µM,0.828
same,relative viability,RERF-LC-KJ; first compound 0.05 µM,1.13
same,relative viability,RERF-LC-KJ; first compound 0.1581 µM,1.37
same,relative viability,RERF-LC-KJ; first compound 0.5 µM,1.07
same,relative viability,UMC-11; first compound 0.005 µM,0.314
same,relative viability,UMC-11; first compound 0.01581 µM,0.322
same,relative viability,UMC-11; first compound 0.05 µM,0.306
same,relative viability,UMC-11; first compound 0.5 µM,0.329
